Measured values as given in patent US9492470B2, “Use of HMGA-targeted phosphorothioate DNA aptamers to suppress carcinogenic activity and increase sensitivity to chemotherapy agents in human cancer cells” (MIAMI UNIVERSITY, priority 2012, dated 2016).
Like-named read-outs stand apart in the source and are kept apart here. In the oligonucleotide strings, read from the 5' end, every base follows the letter of its sugar. An asterisk marks phosphorothioate; unmarked linkages are phosphodiester. Other units and linkages are bracketed, terminal groups are in braces. A string of capitals states the bases alone. d = 2'-deoxy (DNA)

Assays:
[1] = tested on: HMGA1 expression levels in AsPC-1 cells; assay: Western blot of HMGA1 expression levels in AsPC-1 nuclear extracts; type: cell-based, Human; conditions: AsPC-1, 0.5 μg sDNA in six well plates, 48 hours
Procedure: Cytoplasmic and nuclear protein extracts were prepared from pancreatic cancer cells using NE-PER extraction kit (Thermo Scientific, Rockford, Ill.). Protein concentrations were determined using a bicinchoninic acid assay with bovine serum albumin as a standard. Nuclear proteins that contained 25 or 15 μg total protein were separated by SDS-PAGE with a 4%-20% Criterion gradient gel (Bio-Rad Laboratories, Inc., Hercules, Calif.). The proteins were transferred to immuno-blot PVDF membrane (0.2 μm) (Bio-Rad Laboratories, Inc., Hercules, Calif.) and blocked in 5% dry milk in PBS supplemented with 0.2% Tween 20 (PBST). The PVDF membranes were then probed with 1:1000 dilution of rabbit anti-HMGA1 antibody (Santa Cruz Biotechnology Inc, Santa Cruz, Calif.) and 1:100 dilution of rabbit anti-HMGA2 antibody (Abcam plc, Cambridge, Mass.), in 3% BSA in PBST at 4° C. overnight. After three washes with PBST, the membrane was blotted with secondary antibody, ant-rabbit IgG-HRP (cell signaling) 1:5000 dilution in 1% dry milk in PBST at room temperature for 1 hour. An enhanced chemiluminescence detection (ECL, GE Healthcare Life Sciences, Piscataway, N.J.) system was used to detect target proteins. To ensure equal loading of the proteins between groups, membranes were re-probed with anti-TATA binding protein antibody (Abcam plc, Cambridge, Mass.). […] The control was nuclear extract from untreated cells. Triplicates of each sample were run on the gel and analyzed with the Alpha Imager. The relative HMGA1 densities were obtained by dividing HMGA 1 density by TBP density. […] TATA binding protein (TBP) was used as a loading control. […] HMGA1 expression levels were examined after transfection with CG-sDNA or AT-sDNA to determine if the transfection procedure affected HMGA1 expression levels. The AT-sDNA used for transfection contained an 18 adenine/thymine stretch enabling HMGA1 to bind the DNA with all three AT-hooks. As a negative control, a non-HMGA1-targeted sDNA containing an equal length of DNA but with no AT-stretches, i.e. CG-sDNA, was used. […]

[2] = tested on: AsPC-1 cells; assay: Cell growth with gemcitabine treatment after sDNA transfection, AsPC-1; type: cell-based, Human; conditions: AsPC-1, 0.25 ug sDNA, 96 hours
[3] = tested on: Miapaca-2 cells; assay: Cell growth with gemcitabine treatment after sDNA transfection, Miapaca-2; type: cell-based, Human; conditions: 96 hours
[4] = tested on: AsPC-1 cells; assay: Cell growth with gemcitabine treatment after sDNA transfection, AsPC-1; type: cell-based, Human; conditions: AsPC-1, 0.1 ug sDNA, 96 hours
Procedure: (§1) Cells were fixed after 96 hours and numbers of viable cells counted by measuring the absorbance at 570 nm.
(§2) Cells were transfected with 0.1 μg of TC-sDNA, Mix-sDNA, CG-sDNA, and AT-sDNA.

[5] = tested on: AsPC-1 cells; conditions: for cell death: 96 h, compared to non-transfected cells; for cells dead compared to UT: versus untransfected (UT) cells; for Fold change in numbers of viable cells between TC and sDNA transfected cells (in parentheses) / Fold change in numbers of viable cells between UT and transfected cells: 96 h after transfection
Procedure: AsPC-1 cells were grown in Roswell Park Memorial Institute medium supplemented with 10% FBS, and 1% penicillin-streptomycin.
Transfections using sDNA at concentrations of 0.1 and 0.25 μg per well were conducted with 5×10^4 and 1×10^5 Miapaca-2 and AsPC-1 cells, respectively, in 24-well plates and all data were collected in quadruplicate. Miapaca-2 and AsPC-1 cells were transfected with sDNA using Lipofectamine 2000 (Invitrogen,™ Life Technologies Corporation, Carlsbad, Calif.) according to the manufacturer's protocol.
Briefly, AsPC-1 cells grown in 10% FBS containing RPIM medium were trypsinized using a trypsin-EDTA solution commercially available from the Sigma-Aldrich, and used to seed fresh media in a 24-well plate with 10^5 cells per well.
After 48 hours, the cells were transfected with the selected sDNA using Lipofectamine 2000 (Invitrogen,™ Life Technologies Corporation, Carlsbad, Calif.) according to the manufacturer's protocol. […] The cells were then fixed with 4% paraformaldehyde in PBS for 20 minutes and stained in 0.1% crystal violet stain (Sigma-Aldrich) for 30 minutes. The cells were washed under running tap water, air dried, and extracted with 0.2% Triton™ X-100 for 30 minutes. […] The absorbance of the Triton X-100 was measured at 570 nm using a HTS microplate reader. All results were analyzed for statistical significance using a student's unpaired t-test.

[6] = tested on: Miapaca-2 cells; assay: Cell growth with gemcitabine treatment after sDNA transfection, Miapaca-2; type: cell-based, Human; conditions: 96 hours; for Fold change in numbers of viable cells normalized relative to TC: Miapaca-2, 0.1 ug sDNA
Procedure: as §1, §2

[7] = tested on: Miapaca-2 cells; assay: Cell viability (crystal violet) after sDNA transfection, Miapaca-2; type: cell-based, Human; conditions: for cells dead compared to UT: versus untransfected (UT) cells; for Fold change in numbers of viable cells between TC and sDNA transfected cells (in parentheses) / Fold change in numbers of viable cells between UT and transfected cells: 96 h after transfection
Procedure: The absorbance was measured at 570 nm in quadruplicate. All data from control cells were combined and averaged.

In the case of “CG-sDNA: CG-rich phosphorothioate DNA (SEQ ID NO: 12), negative control with no AT-stretches (DNA dC*dC*dC*dC*dG*dG*dG*dC*dC*dC*dC*dG*dG*dC*dC*dG*dG*dG*dC*dG*dC*dC*dG*dC)”, the “change in HMGA1 expression levels after sDNA transfection” value [1] was “no changes”, the “Fold change in numbers of viable cells normalized relative to TC” value ([2]; Gemcitabine 0 nM) was −1.10 fold and the “Fold change in numbers of viable cells normalized relative to TC” value ([2]; Gemcitabine 1 nM) was −1.10 fold. The “Fold change in numbers of viable cells normalized relative to TC” value ([2]; Gemcitabine 10 nM) was −1.21 fold, the “Fold change in numbers of viable cells normalized relative to TC” value ([2]; Gemcitabine 30 nM) was −1.69 fold and the “Fold change in numbers of viable cells normalized relative to TC” value ([2]; Gemcitabine 100 nM) was −1.36 fold. The “Fold change in numbers of viable cells normalized relative to TC” value ([2]; Gemcitabine 1000 nM) was −2.16 fold, the “Fold change in numbers of viable cells normalized relative to TC” value ([3]; Miapaca-2, 0.1 ug sDNA, Gemcitabine 1 nM) was 1.12 fold and the “Fold change in numbers of viable cells normalized relative to TC” value ([3]; Miapaca-2, 0.25 ug sDNA, Gemcitabine 0 nM) was −1.30 fold. For the same substance, the “Fold change in numbers of viable cells normalized relative to TC” value ([3]; Miapaca-2, 0.25 ug sDNA, Gemcitabine 1 nM) was −1.38 fold, the “Fold change in numbers of viable cells normalized relative to TC” value ([3]; Miapaca-2, 0.25 ug sDNA, Gemcitabine 10 nM) was −1.37 fold and the “Fold change in numbers of viable cells normalized relative to TC” value ([3]; Miapaca-2, 0.25 ug sDNA, Gemcitabine 30 nM) was −2.97 fold. For the same substance, the “Fold change in numbers of viable cells normalized relative to TC” value ([3]; Miapaca-2, 0.25 ug sDNA, Gemcitabine 100 nM) was −5.48 fold, the “Fold change in numbers of viable cells normalized relative to TC” value ([3]; Miapaca-2, 0.25 ug sDNA, Gemcitabine 1000 nM) was −4.11 fold and the “Fold change in numbers of viable cells normalized relative to TC” value ([4]; Gemcitabine 0 nM) was −1.11 fold. For the same substance, the “Fold change in numbers of viable cells normalized relative to TC” value ([4]; Gemcitabine 1 nM) was −1.09 fold, the “Fold change in numbers of viable cells normalized relative to TC” value ([4]; Gemcitabine 10 nM) was −1.18 fold and the “Fold change in numbers of viable cells normalized relative to TC” value ([4]; Gemcitabine 30 nM) was −1.34 fold. The “Fold change in numbers of viable cells normalized relative to TC” value ([4]; Gemcitabine 100 nM) was −1.52 fold, the “Fold change in numbers of viable cells normalized relative to TC” value ([4]; Gemcitabine 1000 nM) was −1.67 fold and the cell death ([5]; AsPC-1, 0.1 μg sDNA per well) was 12%. The “cells dead compared to UT” value ([5]; AsPC-1, 0.1 ug sDNA, 48 hrs) was 33.8%, the “Fold change in numbers of viable cells between TC and sDNA transfected cells (in parentheses)” value (shortened to “Fold change in numbers … (in parentheses)”) ([5]; AsPC-1, 0.1 μg sDNA) was “(−1.11) fold” and the “Fold change in numbers of viable cells between UT and transfected cells” value ([5]; AsPC-1, 0.1 μg sDNA) was −1.20 fold. The “cells dead compared to TC” value ([5]; AsPC-1, 0.1 μg sDNA, 96 hrs, versus transfection control (TC) cells) was 9.7%, the “cells dead compared to UT” value ([5]; AsPC-1, 0.1 ug sDNA, 96 hrs) was 14.3% and the “difference in cell viability between TC cells and sDNA transfected cells” value ([5]; AsPC-1, 0.1 ug sDNA, both 48 and 96 hours) was “no significant differences”. The cell death ([5]; AsPC-1, 0.25 μg sDNA per well) was 16%, the “Fold change in numbers … (in parentheses)” value ([5]; AsPC-1, 0.25 μg sDNA) was “(−1.10) fold” and the “Fold change in numbers of viable cells between UT and transfected cells” value ([5]; AsPC-1, 0.25 μg sDNA) was −1.19 fold. For the same substance, the “cell death compared to TC” value ([5]; AsPC-1, 0.25 μg sDNA, 96 hours, versus TC cells) was 9.0%, the cell death ([5]; AsPC-1, 1.0 μg sDNA per well) was 60% and the “cells dead compared to TC” value ([5]; AsPC-1, 1.0 μg sDNA, 96 hours, versus TC cells) was 56.4%. For the same substance, the “cells dead / change in cell viability” value ([6]; Miapaca-2, 0.1 μg sDNA, 1 nM gemcitabine) was “no significant change”, the cells surviving ([6]; Miapaca-2, 0.1 μg sDNA, 10 nM gemcitabine, normalized to 0 nM gemcitabine) was 83.9% and the “Fold change in numbers of viable cells normalized relative to TC” value ([6]; Gemcitabine 0 nM) was 1.09 fold. The “Fold change in numbers of viable cells normalized relative to TC” value ([6]; Gemcitabine 10 nM) was −1.09 fold, the “Fold change in numbers of viable cells normalized relative to TC” value ([6]; Gemcitabine 30 nM) was −3.29 fold and the “Fold change in numbers of viable cells normalized relative to TC” value ([6]; Gemcitabine 100 nM) was −4.06 fold. For the same substance, the “Fold change in numbers of viable cells normalized relative to TC” value ([6]; Gemcitabine 1000 nM) was −4.24 fold, the “cells dead compared to UT” value ([7]; Miapaca-2, 0.1 ug sDNA, 48 hrs) was 36.3% and the “Fold change in numbers … (in parentheses)” value ([7]; Miapaca-2, 0.1 μg sDNA) was “(1.09) fold”. For the same substance, the “Fold change in numbers of viable cells between UT and transfected cells” value ([7]; Miapaca-2, 0.1 μg sDNA) was −1.43 fold, the “cells dead compared to UT” value ([7]; Miapaca-2, 0.1 ug sDNA, 96 hrs) was 32.0% and the “difference in cell viability between TC cells and sDNA transfected cells” value ([7]; Miapaca-2, 0.1 ug sDNA, both 48 and 96 hours) was “no significant differences”. The “Fold change in numbers … (in parentheses)” value ([7]; Miapaca-2, 0.25 μg sDNA) was “(−1.30) fold” and the “Fold change in numbers of viable cells between UT and transfected cells” value ([7]; Miapaca-2, 0.25 μg sDNA) was −2.15 fold.
